Laboratory results published in article PMC11042424, “Development of a First-in-Class RIPK1 Degrader to Enhance Antitumor Immunity” (Research Square, 2024).
Entries after “also recorded” stand apart in the source; their conditions may differ. Like-named read-outs stand apart in the source and are kept apart here.

Columns and labels:
[1] = system: whole cellular proteome of MDA-MB-231 cells; test: Proteome profiling of LD4172 induced protein degradation; format: cell-based, human; conditions: 200 nM, 6 h
Description: One million MDA-MB-231 cells were seeded in 6-well plates. The following day, cells were treated in triplicate with LD4172 (200 nM) or LD4172-NC (200 nM) for 6 h. The cells were washed thrice with ice-cold PBS. The cell pellets were lysed, reduced, alkylated, and digested using EasyPep™ MS Sample Prep Kits (A45733,ThermoFisher) according to the manufacturer’s instructions. The same amount of peptide from each condition was labeled with a tandem mass tag (TMT) reagent (90113, ThermoFisher). The 10-plex TMT reagent was incubated with each peptide sample at a ratio of 1:8 (peptide:TMT label). The 10-plex labeling reactions were performed for 1 h at room temperature. The labeled peptide samples were quenched by adding 50 μL of 5% hydroxylamine and 20% formic acid solution for 5 min and then mixed. […]
Proteome Discoverer 2.4 (Thermo Fisher Scientific) was used. RAW file processing and controlling peptide- and protein-level false discovery rates, assembling proteins from peptides, and protein quantification from peptides. […] PSMs with precursor isolation interference values > 50% and average TMT-reporter ion signal-to-noise values (S/N) < 10 were excluded from quantitation. […] Protein quantification uses both unique and […] peptides. […]

[2] = Pharmacokinetics in C57BL/6J mice; format: in vivo; conditions: mouse, plasma
Description: Next, we evaluated the pharmacokinetics (PK) of LD4172 in C57BL/6J (B6) mice (Fig. 4A).
Figure 4 LD4172 synergizes with Anti-PD1 to inhibit tumor growth. A, Plasma concentrations of LD4172 in C57BL/6J mice administered 1 mg/kg intravenously (i.v.) or 10 mg/kg intraperitoneally (i.p.) (n=4). B, Representative immunoblots of RIPK1 in different tissues of C57BL/6J mice treated with LD4172 (n=3–4). C, Densitometric analysis of RIPK1 protein levels in different tissues (n=3 or 4). D, Representative immunoblots of RIPK1 levels of B16F10 cells transduced with gRNA specific for RIPK1 or non-targetable control (sgNC). E, B16F10-RIPK1-KO tumors sensitized to anti-PD1 treatment: 3×10^5 B16F10 cells transduced with gRNA specific for RIPK1 or non-targetable control (sgNC) were inoculated into C57BL/6J mice. After seven days, mice with measurable tumors (~100 mm3) were randomly treated with or without anti-PD1 in vivo (100 μg per dose, i.p., every three days, n=8). F, Tumor growth curve of mice with B16F10 tumors treated with LD4172 and/or anti-PD1 (n=8). C57B6/J mice were subcutaneously inoculated with 3×10^5 B16F10 tumor cells. After seven days (tumor size ~ 100 mm3), mice were treated every three days with anti- PD1 (100 μg per dose, i.p.), daily with LD4172 (20 mg/kg, i.p.), a combination of LD4172 and anti-PD1 (same dose as their individual doses), or their corresponding vehicle control. G, Kaplan-Meier survival curve for all experimental groups. H, Final tumor weight (g) from F after 22d of treatment (n=8). I, Representative images of B16F10 tumors collected at the end of treatment. J, Mouse body weight (n=8). K, Tumor growth curve of mice with B16F10 tumors treated with T2I and/or anti-PD1 (n=8). The experimental conditions and treatment regimens were the same as F except using the RIPK1 kinase inhibitor T2I (20 mg/kg, i.p.) to replace LD4172. Representative data from at least three independent experiments are shown. Data are expressed as the mean ± SEM. * p<0.05; ** p<0.01; *** p<0.001, **** p<0.0001, respectively. ns, indicates no statistical significance.

hERG channel = hERG channel (Homo sapiens, UniProt Q12809); test: hERG channel inhibition assay; conditions: at 30 μM
Chain of hERG channel (Q12809 whole entry): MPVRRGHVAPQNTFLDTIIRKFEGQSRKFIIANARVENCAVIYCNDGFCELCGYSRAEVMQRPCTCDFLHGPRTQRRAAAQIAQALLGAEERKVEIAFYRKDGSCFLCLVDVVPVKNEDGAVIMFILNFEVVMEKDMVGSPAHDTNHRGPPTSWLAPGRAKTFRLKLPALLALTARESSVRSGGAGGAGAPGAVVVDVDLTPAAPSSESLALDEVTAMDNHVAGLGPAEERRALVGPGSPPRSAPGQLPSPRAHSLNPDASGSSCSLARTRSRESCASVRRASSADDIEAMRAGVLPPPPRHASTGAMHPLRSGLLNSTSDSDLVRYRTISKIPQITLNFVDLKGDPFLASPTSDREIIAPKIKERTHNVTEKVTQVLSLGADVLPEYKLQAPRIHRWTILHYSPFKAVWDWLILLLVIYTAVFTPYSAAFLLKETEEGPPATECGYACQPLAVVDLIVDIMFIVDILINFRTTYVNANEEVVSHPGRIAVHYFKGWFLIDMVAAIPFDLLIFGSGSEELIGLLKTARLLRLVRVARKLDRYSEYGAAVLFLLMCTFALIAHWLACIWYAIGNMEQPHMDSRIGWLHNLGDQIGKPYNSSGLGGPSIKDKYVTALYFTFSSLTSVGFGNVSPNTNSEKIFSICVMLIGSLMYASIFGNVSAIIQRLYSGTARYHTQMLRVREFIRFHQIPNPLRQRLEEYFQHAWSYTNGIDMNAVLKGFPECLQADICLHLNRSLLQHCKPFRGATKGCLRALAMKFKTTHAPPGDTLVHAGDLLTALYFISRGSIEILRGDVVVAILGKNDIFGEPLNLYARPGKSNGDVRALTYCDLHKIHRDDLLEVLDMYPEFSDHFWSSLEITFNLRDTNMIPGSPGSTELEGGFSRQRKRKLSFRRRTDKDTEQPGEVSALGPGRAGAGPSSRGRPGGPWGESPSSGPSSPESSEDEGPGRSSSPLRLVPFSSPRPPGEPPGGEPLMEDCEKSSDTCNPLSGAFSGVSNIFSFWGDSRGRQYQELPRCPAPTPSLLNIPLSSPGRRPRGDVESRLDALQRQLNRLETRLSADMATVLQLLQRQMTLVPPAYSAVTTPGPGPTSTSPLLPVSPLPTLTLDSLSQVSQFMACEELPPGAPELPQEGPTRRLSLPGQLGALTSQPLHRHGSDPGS

MC38 tumors = test: Syngeneic MC38 colon cancer model with anti-PD1; format: in vivo

Cc1ncsc1-c1ccc([C@H](C)NC(=O)[C@@H]2C[C@@H](O)CN2C(=O)[C@@H](NC(=O)CCCCCCCCCCC(=O)NCCCn2cc(-c3ccc4c(c3)CCN4C(=O)Cc3cccc(OC(F)(F)F)c3)c3c(N)ncnc32)C(C)(C)C)cc1 [LD4172]
degradation of off-target kinases [1]: no degradation of off-target kinases was observed
proteins degraded in whole cellular proteome ([1]; vs LD4172-NC): only protein showing >50% degradation; also recorded: RIPK1 was the only protein degraded
bioavailability ([2]; intraperitoneal, i.p. 10 mg/kg vs i.v. 1 mg/kg): 39%
AUC ([2]; ip, 10 mg/kg i.p., read-out: AUC): 2.7 µM·h
Cmax ([2]; ip, 10 mg/kg i.p., read-out: Cmax): 2.9 µM
half-life ([2]; ip, 10 mg/kg i.p., read-out: t1/2 (converted)): 1.5 h
clearance ([2]; iv, 1 mg/kg i.v.): 19.8 ± 1.8 mL/min/kg
AUC ([2]; iv, 1 mg/kg i.v., read-out: area under the concentration-time curve (AUC)): 0.7 ± 0.07 µM·h
half-life ([2]; iv, 1 mg/kg i.v., read-out: half-life (t1/2) (converted)): 3.3 ± 2.1 h
Cmax ([2]; iv, 1 mg/kg i.v., read-out: maximum plasma concentration (Cmax)): 6.3 ± 0.8 µM
Vd ([2]; iv, 1 mg/kg i.v., read-out: volume of distribution (Vd)): 1.1 ± 0.2 L/kg
inhibition of hERG (hERG channel): no obvious inhibition
tumor response in combination with anti-PD1 (MC38 tumors): substantially sensitized MC38 tumors to anti-PD1 therapy
